Measured values published in patent US20050106554A1, “Cryopreservation of pluripotent stem cells” (priority 2003, published 2005).

Assays:
HES cells [1] = assay: Trypan blue exclusion after cryopreservation of HES colonies in suspension; assay type: cell-based, human; details: DMSO 0 to 10% in freezing medium, Trypan blue (FIG. 1)
Description: In order to cryopreserve ES cells in suspension, cells were grown to approximately 1000-10,000 cell colonies on Matrigel™ or a MEF feeder layer. Average colony size was determined by counting colony number in a representative sample, then dispersing cells in the colony by treatment with 10 mg/ml dispase and counting cell number. 1 mg/ml collagenase was used to detach colonies from the plate and the colonies were resuspended in freezing medium containing FBS, DMSO and CM at varying concentrations. Cells were not dispersed during freezing. The solution was not seeded to form extracellular ice. 1 ml of 1-3×10^5 cells/ml were placed in a cryovial and frozen at approximately −1° C. per minute. Initial studies were performed by placing cells in a Nalgene Cryo 1° C. freeze container in a −80° C. freezer, and later samples were frozen in a controlled-rate freezer (Forma Scientific, Model 8026). […] After reaching −80° C., cells were stored in liquid nitrogen. HES cells were harvested from a flat-bottomed 24-well tissue culture plate coated with Matrigel™ by addition of trypsin-EDTA (0.25% trypsin, 1 mM EDTA) until colonies were completely dispersed. HES cells were resuspended in 500 μl HES medium containing 10% FBS. […] Total cell number and the fraction of cells that incorporated Trypan blue were counted on a hemacytometer. […]

murine 3T3 fibroblasts = details: intracellular trehalose on the order of 0.2M; cited from earlier work
human keratinocytes = details: intracellular trehalose on the order of 0.2M; cited from earlier work
HES colonies = assay: Colony recovery (colony count) after cryopreservation of adherent HES colonies; assay type: cell-based, human; details: adherent without top Matrigel layer, 5 days after thawing
Description: In addition to providing higher cell viability, cryopreservation of adherent colonies increases the number of colonies that are able to remain attached to the surface and eventually grow (i.e., higher recovery rate). […] In referring to FIG. 4, approximately 10^6 HES cells were cultured in the well of a Matrigel™-coated 24 well plate. Colonies in sample a were harvested from the plate as intact colonies (were not dispersed) and suspended in cryopreservation media containing 10% DMSO, 30% FBS, and 60% CM/F+. Samples b-e were preserved attached to the Matrigel™ layer in the same cryopreservation media. Sample b was preserved without an additional layer of Matrigel™ poured over the cells prior to freezing, c with a Matrigel™ layer poured 1 hr prior to freezing, d with a Matrigel™ layer poured 24 hr prior to freezing, and e with a Matrigel™ layer poured 48 hr prior to freezing. All samples were stored in liquid nitrogen and thawed after 3 days, then grown for 1-2 weeks. Colonies were then counted to determine colony recovery. Error bars represent SEM for at least four independent trials.
Loading cells with 35 mM trehalose for 24 hours prior to freezing, and then freezing in medium containing DMSO results in an increase in the number of adherent colonies following thawing; virtually all colonies remain attached to the surface and can grow (FIG. 10). […]

human pancreatic islets = details: trehalose formulations added to cryopreserved islets; cited from earlier work
HES cells [2] = assay: Cell viability by MTT and Alamar blue assays after cryopreservation of adherent HES colonies; assay type: cell-based, human
Description: In this example, cells were grown to approximately 1000-10,000 cell colonies on Matrigel™ or a MEF feeder layer in a 24 well plate. Average colony size was determined by counting colony number in a representative sample, then dispersing cells in the colony by treatment with 10 mg/ml dispase and counting cell number. The growth medium was aspirated from each well and a top layer of Matrigel™ was poured over the adherent colonies by diluting 6 mg Matrigel™ in 12 ml CM/F+ (conditioned medium+bFGF) and adding 0.5 ml to each well of the 24 well plate. The plate was incubated at 37° C. in a humidified 5% CO2 incubator for 1 hr and the Matrigel™ solution was aspirated from the plate. Then, 0.5 ml growth medium (HES or CM/F+ was added to each well and cells were cultured in the Matrigel™ for up to 2 days. Growth medium was aspirated from each well and 0.5 ml freezing medium containing varying concentrations of FBS, DMSO, and CM was added to each well. The fresh freezing medium was made on the day of freezing. The freezing medium generally contains 10% DMSO, 30% FBS and 60% conditioned HES media. The medium on the plate was aspirated off and replaced with 0.5 ml freezing medium.
The plate was sealed with parafilm and frozen to −80° C. at −1° C. per minute. Initial studies were performed by placing cells in a parafilm-sealed Styrofoam box in a −80° C. freezer, and later samples were frozen in a controlled-rate freezer (Model 8026, Forma Scientific). […] The solution was not seeded to form extracellular ice. The plates containing the cells were then transferred to liquid nitrogen and stored 5-7 days, which was long enough to stabilize the cells but permitted a reasonable experimental throughput.
To thaw the ES cells, plates were placed in a 37° C. water bath and swirled to thaw as rapidly as possible. After thawing, 1 ml fresh CM/F+ medium was added in a drop-wise manner to each well, then aspirated. Fresh media (0.5 ml) was added to each well and the cells were incubated at 37° C. in a humidified 5% CO2 incubator. […]
HES cells were cultured grown on flat-bottomed 24-well tissue culture plates coated with Matrigel™, with 0.5 ml CM/F+ in each well. […] Within an hour, absorbance at 595 nm was measured on a plate reading spectrophotometer (TECAN Genios). A standard curve for the MTT assay (not shown) was generated by growing HES colonies to different concentrations, ranging from 5×10^4 cells per well to 2×10^6 cells per well (determined by counting dispersed cells on a hemacytometer) on a Matrigel™-coated 24 well plate.
HES cells were cultured on flat-bottomed 24-well tissue culture plates coated with Matrigel™, with 0.5 ml CM/F+ in each well. […] Then absorbance was measured on a TECAN Genios plate reader at 595 nm. […]

[3] = test system: hematopoeitic precursor cells; details: trehalose added to cryopreservation media containing DMSO and FBS; cited from earlier work
HES cells [4] = assay: Toxicity of trehalose in growth medium; assay type: cell-based, human; details: cell exposure to growth medium containing trehalose
[5] = test system: SSEA4 expression on HES cells; assay: SSEA4 expression on cryopreserved HES cells by flow cytometry; assay type: cell-based, human; details: attached to Matrigel, loaded with 35 mM trehalose for 1 day; 10% DMSO, 30% FBS, 60% CM/F+ medium
Description: SSEA4 expression was determined by flow cytometry. After thawing, cells were allowed to grow on Matrigel™ in CM/F+ medium for 7 days, then colonies were removed from Matrigel™ by 1 mg/ml collagenase IV (GIBCO/BRL) treatment. Cells were dispersed by treatment with a 0.05% trypsin, 0.53 mM EDTA solution (GIBCO/BRL) for 5-10 minutes and filtered through a 40 μm mesh. 100 μl of the cell suspension containing 5×10^6 cells/ml was added to a sample tube and a control tube. 1 μl of MC813-70 (anti-SSEA4) (Kannagi et al. 1983) was added to the test tube and 5 μl of 1 mg/ml mouse IgG (Sigma) was added to the control tube. Tubes were vortexed and incubated on ice for 30 min. […] Samples were analyzed using a FACScan flow cytometer (Becton Dickinson) and Cellquest software (Becton Dickinson). […] The fluorescein signal was obtained through a 530/30 band pass filter and the mean fluorescence values for the IgG control and test samples were determined.
Furthermore, in addition to retention of OCT4 expression (see FIG. 6), applicants observed that when HES colonies were frozen in suspension in cryovials, adherent to Matrigel™, embedded in Matrigel™, and loaded with trehalose were able to maintain SSEA4 expression after recovery (FIG. 11, Table 1). […] The gated region for all samples was determined from the positive control (Sample A). […]

Row | Structure (SMILES) | protection from membrane rupture during cryopreservation (HES cells [1]) | cells surviving a freeze-thaw cycle (murine 3T3 fibroblasts) | cells surviving a freeze-thaw cycle (human keratinocytes) | colonies recovered (HES colonies; loaded with 35 mM trehalose for 24 hours) | colonies recovered (HES colonies; loaded with 35 mM trehalose for 48 hours) | viable cell recovery (human pancreatic islets) | increase in viability compared to DMSO alone (HES cells [2]; 35 mM trehalose loaded 24 hours, 10% DMSO and FBS above 50%, p<0.05) [%] | viability vs loading for 24 hours or not loading (HES cells [2]; 35 mM trehalose loaded 48 hours) | additional protection during freezing and thawing (HES cells [2]; 35 mM trehalose loading, 10% DMSO and FBS concentrations less than 50%) | protection during freezing and thawing (HES cells [2]; 35 mM trehalose loading, absence of DMSO) | increase in viability [3] | trehalose concentration in growth medium causing toxicity (HES cells [4]) | Percent of cells gated (SSEA4) [5]
1 | C[S+](C)[O-] [DMSO, dimethyl sulfoxide] | protect HES cells from membrane rupture |  |  |  |  |  |  |  |  |  |  |  | 
2 | OC[C@H]1O[C@H](O[C@H]2O[C@H](CO)[C@@H](O)[C@H](O)[C@H]2O)[C@H](O)[C@@H](O)[C@@H]1O [trehalose] |  | approximately 75% | approximately 75% | 82%±5% | 48%±10% | doubles | 25 | lower viability | no additional protection | no protection | 7-20% | greater than 35 mM | 81.5
